# Assay results: patent US20240343726A1, “PYRROLOPYRIDINE-3- AND 4-CARBOXAMIDE COMPOSITIONS AND METHODS FOR CELLULAR PROLIFERATION” (The Rockefeller University, priority 2021, published 2024)
# Where two headings read alike, the source gives them in different places.
# Tests used:
# [1] = tested on: Yap; test: Yap nuclear translocation in supporting cells of cultured utricles (immunohistochemical analysis); type: cell-based, mice; settings: 10 μM, 24 hr of treatment, control=0.6
# [2] = tested on: adult utricular supporting cells; test: EdU proliferation assay in cultured adult utricles; type: cell-based, mice; settings: 5 days of treatment, control=20
# Description: was tested in vitro to explore its mechanism of action and its utility in regenerating hair cells of the ear. The effects of the compounds were tested on utricles isolated from mice eight to twelve weeks of age. Internal ears were dissected from mice euthanized with fluothane and placed into ice-cold Hank's balanced salt solution, and cultured as previously described by Gnedeva, K. & Hudspeth [Proc. Natl. Acad Sci. 112, 14066-14071 (2015)]. For proliferation assays, utricles were cultured with 10 μM 5-ethynyl-2′-deoxyuridine (EdU) that was detected with click chemistry.
# After 5 days of treatment, the N-benzyl thiazole evoked robust re-entry into the cell cycle of adult utricular supporting cells, yielding hundreds of EdU+daughter supporting cells (control=20 EdU+ supporting cells; the N-benzyl thiazole-treated=250 EdU+supporting cells; p=0.021 by an unpaired, one-tailed 1-test, control n=2, TO1 n=3).
# [3] = biological target: LATS1 kinase (Homo sapiens (Human), UniProt O95835); test: LATS1 Biochemical HTRF Assay
# Description: LATS1 Biochemical HTRF Assay
# MgCl2 and [1 mM] DTT. 1× Enzymatic buffer diluted from 5× Enzymatic buffer*. Add 0.5 μL of 20× compound in 100% DMSO. […] MgCl2, [1 mM] DTIT and [5 mg/mL] BSA. 5×ERR prepared from 5× Enzymatic buffer with [25 mg/mL] BSA. Mix plate on plate shaker set at 1,350 rpm for 30 seconds, then centrifuge plate at 1,000 rpm for 1 minute. Incubate for 30 minutes at 25° C. on plate shaker set to 500 rpm. […] STK Substrate 1-biotin* then add 2 μL [10 mM] ATP. Mix plate on plate shaker set at 1,350 rpm for 30 seconds, then centrifuge plate at 1,000 rpm for 1 minute. Incubate for 40 minutes at 25° C. on plate shaker set to 500 rpm. […] Streptavidin-XL665 with 1×STK Antibody-Cryptate*. Mix plate on plate shaker set at 1,350 rpm for 30 seconds, then centrifuge plate at 1,000 rpm for 1 minute. Incubate for 60 minutes at 25° C. on plate shaker set to 500 rpm, covered from light.
# *(Included in Cisbio KinEASE-STK Si HTRF Kit: 62ST1PEC)
# [4] = tested on: phosphorylation of YAP; test: pYAP HTRF Assay (HEK 293A Cells); type: cell-based; settings: HEK293-A, inhibitory activity of phosphorylation of YAP, read-out: LATS1_ICKA_HEK293A IC50
# Description: Use 3× dilution scheme in DMSO through column 10, lastly diluting further by 10× into column 11. Add 100% DMSO in serum-free and complete medium in columns 1 and 12 as a positive and negative control, respectively. To achieve a dilution of 1:500, use two 0.8 ml 96-well deep-well plates (ThermoFisher AB0765) pre-filled with the medium as intermediate (1:20) and final dilution plate (1:25). (Transfer row-wise) • Flick the cell plate carefully, three to four times or until all wells are clear of any residual liquid. Dispense 50 μL of the compound in medium into respective wells row-wise, incubate at 37° C. for 30 min • After a 30-minute incubation, flick the cell plate carefully, three to four times or until all wells are clear of any residual liquid. Dilute stock Lysis Buffer #4 (4×) in deionized water, complemented with blocking solution, the stock of which is 100×*. Add 75 μL 1× lysis buffer+blocking reagent mix into each well. Mix plate on a shaker for 30 min at room temperature • Dilute stock solution of total/phospho-YAP Eu cryptate & d2 antibody (each) in the ratio of 1:20 with detection buffer. Mix antibody solutions Eu3+ cryptate and d2 (each for total-Yap and phospho-YAP) in the ratio of 1:1*. Transfer 4 μL of the antibody mixture into two separate small-volume 384-well plates assigned for total-YAP and phospho-YAP. Give a short spin to the plates in a benchtop centrifuge set at 1000 rpm for 30 seconds • Row-wise, homogenize the lysate gently by pipetting it up and down, swirling the tip in the well to help scrape off any adherent cells (avoid bubble formation). Row-wise transfer 16 μL cell lysate into the low-volume 384-well plates with 4 μL total-YAP or phospho-YAP antibody reaction mix for a final volume of 20 μL. Spin down the plates in a benchtop centrifuge set at 1000 rpm for 30 seconds • Seal the plates using a vacuum sealer, incubate overnight at room temperature in the dark on a shaker; read the next day • Use a fluorescence emission read using compatible HTRF® reader—BioTek Synergy NEO. […] Included in Cisbio HTRF YAP total kit (#64YATPEH) & YAP phospho-S127 kit (#64YAPPEH).
# [5] = 2 mM ATP, read-out: LATS1_HTRF_2 mM ATP IC50
# Chain of LATS1 kinase (O95835 589-1130): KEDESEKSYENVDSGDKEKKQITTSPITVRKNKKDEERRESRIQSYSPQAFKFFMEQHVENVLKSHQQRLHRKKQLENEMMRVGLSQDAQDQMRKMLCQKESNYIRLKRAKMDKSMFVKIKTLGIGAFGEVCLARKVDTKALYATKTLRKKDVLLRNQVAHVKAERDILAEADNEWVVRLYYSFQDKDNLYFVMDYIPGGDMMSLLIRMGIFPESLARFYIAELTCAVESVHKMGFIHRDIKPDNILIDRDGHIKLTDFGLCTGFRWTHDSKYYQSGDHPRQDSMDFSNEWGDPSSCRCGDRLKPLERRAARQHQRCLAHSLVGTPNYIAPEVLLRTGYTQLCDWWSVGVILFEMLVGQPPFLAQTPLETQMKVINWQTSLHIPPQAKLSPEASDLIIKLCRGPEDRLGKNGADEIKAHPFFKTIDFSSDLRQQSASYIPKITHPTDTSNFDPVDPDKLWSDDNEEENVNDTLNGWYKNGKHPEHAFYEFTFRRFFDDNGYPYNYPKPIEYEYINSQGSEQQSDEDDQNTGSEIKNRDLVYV
SMILES,"IC50 [3, 5] [nM]",IC50 [4] [nM],"Yap nuclear translocation, quantified as a ratio to the constitutively expressed protein Sall2 [1]",EdU+ supporting cells (re-entry into the cell cycle) [2],IC50 [3] [nM]
O=C(/N=c1\sccn1Cc1ccccc1)c1c[nH]c2ncccc12,,,1.0,250,
"O=C(/N=C1\SCCN1Cc1ccccc1)c1c[nH]c2ncccc12 [Example 1, (Z)—N-(3-benzylthiazolidin-2-ylidene)-1H-pyrrolo[2,3-b]pyridine-3-carboxamide]",11.2,19.7,,,
O=C(/N=C1\SCCN1c1ccccc1)c1c[nH]c2ncccc12 [Example 2],0.829,23,,,
O=C(/N=C1\SCCN1c1ccccc1Cl)c1c[nH]c2ncccc12 [Example 3],0.297,5.15,,,
CCc1ccccc1N1CCS/C1=N\C(=O)c1c[nH]c2ncccc12 [Example 4],4.2,205,,,
COc1ccccc1N1CCS/C1=N\C(=O)c1c[nH]c2ncccc12 [Example 5],,1700,,,
O=C(/N=C1\SCCN1c1ccccc1O)c1c[nH]c2ncccc12 [Example 6],0.59,1.3,,,
COc1ccc(N2CCS/C2=N\C(=O)c2c[nH]c3ncccc23)cc1 [Example 7],,1850,,,
O=C(/N=C1\SCCN1c1ccc(O)cc1)c1c[nH]c2ncccc12 [Example 8],13,687,,,
COc1cccc(N2CCS/C2=N\C(=O)c2c[nH]c3ncccc23)c1 [Example 9],,1740,,,
O=C(/N=C1\SCCN1c1cccc(O)c1)c1c[nH]c2ncccc12 [Example 10],1.6,39.2,,,
O=C(/N=C1\SCCN1C1CCCCC1)c1c[nH]c2ncccc12 [Example 11],1.1,53,,,
CC1(C)CS/C(=N\C(=O)c2c[nH]c3ncccc23)N1C1CCCCC1 [Example 12],,37,,,1.1
"O=C(/N=C1\SCC(CO)N1c1ccccc1)c1c[nH]c2ncccc12 (centres unmarked) [Example 13, (Z)—N-(4-(hydroxymethyl)-3-phenylthiazolidin-2-ylidene)-1H-pyrrolo[2,3-b]pyridine-3-carboxamide]",0.44,45,,,
"CN(C)CC1CS/C(=N\C(=O)c2c[nH]c3ncccc23)N1c1ccccc1 (centres unmarked) [Example 14, (Z)—N-(4-((dimethylamino)methyl)-3-phenylthiazolidin-2-ylidene)-1H-pyrrolo[2,3-b]pyridine-3-carboxamide]",4.1,71,,,

# Now from value to compound, other results behind:
"IC50 [3, 5] [nM]",IC50 [4] [nM],SMILES,"Yap nuclear translocation, quantified as a ratio to the constitutively expressed protein Sall2 [1]",EdU+ supporting cells (re-entry into the cell cycle) [2],IC50 [3] [nM]
82,1480,O=C(/N=C1\SCCN1c1ccccc1Cl)c1ccnc2[nH]ccc12 [Example 17],,,
210,1720,"CC(O)CN1CCS/C1=N\C(=O)c1c[nH]c2ncccc12 (centres unmarked) [Example 19, (Z)—N-(3-(2-hydroxypropyl)thiazolidin-2-ylidene)-1H-pyrrolo[2,3-b]pyridine-3-carboxamide]",,,
2.5,77,O=C(/N=C1\SCCCN1Cc1ccccc1)c1c[nH]c2ncccc12 [Example 25],,,
,69,O=C(/N=C1\SCCCN1c1ccccc1)c1c[nH]c2ncccc12 [Example 26],,,
200,5560,O=C(/N=C1\SCCCN1c1ccccc1Cl)c1ccnc2[nH]ccc12 [Example 27],,,
1.6,109,O=C(/N=C1\SCCCN1c1ccccc1Cl)c1c[nH]c2ncccc12 [Example 28],,,
2.9,39,O=C(/N=C1\SCCCN1C1CCCCC1)c1c[nH]c2ncccc12 [Example 30],,,
23,1710,"CNC(=O)C1CS/C(=N\C(=O)c2c[nH]c3ncccc23)N(c2ccccc2)C1 (centres unmarked) [Example 34, (Z)-2-((1H-pyrrolo[2,3-b]pyridine-3-carbonyl)imino)-N-methyl-3-phenyl-1,3-thiazinane-5-carboxamide]",,,
3.9,392,"O=C(/N=C1\SCC(CO)CN1c1ccccc1)c1c[nH]c2ncccc12 (centres unmarked) [Example 35, (Z)—N-(5-(hydroxymethyl)-3-phenyl-1,3-thiazinan-2-ylidene)-1H-pyrrolo[2,3-b]pyridine-3-carboxamide]",,,
,4.75,O=C(/N=c1\sccn1-c1ccccc1Cl)c1ccnc2[nH]ccc12 [Example 41],,,
48,527,CNC(=O)c1cs/c(=N\C(=O)c2ccnc3[nH]ccc23)n1-c1ccccc1Cl [Example 58],,,
15,640,"CN(C)Cc1cs/c(=N\C(=O)c2c[nH]c3ncccc23)n1Cc1ccccc1 [Example 65, (Z)—N-(3-benzyl-4-((dimethylamino)methyl)thiazol-2(3H)-ylidene)-1H-pyrrolo[2,3-b]pyridine-3-carboxamide]",,,
1.3,327,"CN(C)Cc1cs/c(=N\C(=O)c2c[nH]c3ncccc23)n1-c1ccccc1Cl [Example 66, (Z)—N-(3-(2-chlorophenyl)-4-((dimethylamino)methyl)thiazol-2(3H)-ylidene)-1H-pyrrolo[2,3-b]pyridine-3-carboxamide]",,,
1.1,147,O=C(/N=c1\scc(CN2CCOCC2)n1-c1ccccc1Cl)c1c[nH]c2ncccc12 [Example 67],,,
2.8,270,COCCN(C)Cc1cs/c(=N\C(=O)c2c[nH]c3ncccc23)n1-c1ccccc1Cl [Example 68],,,
1.8,68,CN(C)Cc1cs/c(=N\C(=O)c2c[nH]c3ncccc23)n1C1CCCCC1 [Example 69],,,
,2290,O=C(/N=C1\SCCN1c1ccccc1)n1ccc2ncccc21 [Example 84],,,
,31600,O=C(/N=c1\sccn1-c1ccccc1Cl)n1ccc2ncccc21 [Example 85],,,
